Measured values reported in publication PMC5224920, “Assessing the mechanism and therapeutic potential of modulators of the human Mediator complex-associated protein kinases” (eLife, 2016).

System: 12 single or co-culture in vitro tissue models of primary cells
Experiment: Culture/co-culture cell model panel, extracellular biomarkers (DiscoveRx); as to CCL2/MCP-1: reference of the scale not given here; as to CXCL8/IL-8: reference of the scale not given here; as to CXCL9/MIG: reference of the scale not given here; as to M-CSF: reference of the scale not given here; as to PBMC Cytotoxicity: reference of the scale not given here; as to SRB: reference of the scale not given here; as to sTNF-alpha: reference of the scale not given here
Type: cell-based, human
Conditions: for Secreted IgG / sIL-2 / sIL-6 / sIL-17A / sIL-17F / sTNF-alpha / B cell Proliferation / PBMC Cytotoxicity: BT; for CCL2/MCP-1 / CD54/ICAM-1 / CD106/VCAM-1 / CXCL8/IL-8 / CXCL9/MIG / CXCL10/IP-10 / CXCL11/I-TAC / Collagen I / Collagen III / EGFR / M-CSF / MMP-1 / PAI-I / Proliferation_72hr / SRB / TIMP-1 / TIMP-2: HDF3CGF stimulated fibroblasts

Structure (SMILES): CN1c2ccc(-c3cncc(Cl)c3N3CCC4(CC3)CNC(=O)O4)cc2CS1(=O)=O [CMPD2]
- Secreted IgG (1.00E0 nM): 0.088
- sIL-2 (1.00E0 nM): 0.154
- sIL-6 (1.00E0 nM): 0.00536
- sIL-17A (1.00E0 nM): -0.061
- sIL-17F (1.00E0 nM): -0.213
- sTNF-alpha (1.00E0 nM): 0.097
- B cell Proliferation (1.00E1 nM): -0.033
- PBMC Cytotoxicity (1.00E1 nM): -0.030
- Secreted IgG (1.00E1 nM): -0.163
- sIL-2 (1.00E1 nM): 0.264
- sIL-6 (1.00E1 nM): 0.057
- sIL-17A (1.00E1 nM): 0.173
- sIL-17F (1.00E1 nM): -0.239
- sTNF-alpha (1.00E1 nM): 0.051
- B cell Proliferation (1.00E2 nM): -0.057
- PBMC Cytotoxicity (1.00E2 nM): -0.030
- Secreted IgG (1.00E2 nM): -0.186
- sIL-2 (1.00E2 nM): 0.109
- sIL-6 (1.00E2 nM): 0.035
- sIL-17A (1.00E2 nM): 0.214
- sIL-17F (1.00E2 nM): -0.485
- sTNF-alpha (1.00E2 nM): 0.059
- B cell Proliferation (1.00E3 nM): -0.027
- PBMC Cytotoxicity (1.00E3 nM): -0.033
- Secreted IgG (1.00E3 nM): 0.074
- sIL-2 (1.00E3 nM): 0.068
- sIL-6 (1.00E3 nM): 0.046
- sIL-17A (1.00E3 nM): 0.216
- sIL-17F (1.00E3 nM): -0.463
- sTNF-alpha (1.00E3 nM): 0.076
- B cell Proliferation (1.00E4 nM): -0.077
- PBMC Cytotoxicity (1.00E4 nM): -0.046
- Secreted IgG (1.00E4 nM): -0.114
- sIL-2 (1.00E4 nM): -0.00739
- sIL-6 (1.00E4 nM): -0.075
- sIL-17A (1.00E4 nM): 0.256
- sIL-17F (1.00E4 nM): -0.594
- sTNF-alpha (1.00E4 nM): 0.009
- CCL2/MCP-1 (1.00E0 nM): -0.018
- CD54/ICAM-1 (1.00E0 nM): 0.007
- CD106/VCAM-1 (1.00E0 nM): -0.010
- CXCL8/IL-8 (1.00E0 nM): -0.008
- CXCL9/MIG (1.00E0 nM): -0.000757
- CXCL10/IP-10 (1.00E0 nM): 0.037
- CXCL11/I-TAC (1.00E0 nM): 0.014
- Collagen I (1.00E0 nM): 0.035
- Collagen III (1.00E0 nM): 0.042
- EGFR (1.00E0 nM): 0.046
- M-CSF (1.00E0 nM): -0.058
- MMP-1 (1.00E0 nM): 0.070
- PAI-I (1.00E0 nM): 0.087
- Proliferation_72hr (1.00E0 nM): -0.036
- SRB (1.00E0 nM): 0.000177
- TIMP-1 (1.00E0 nM): 0.025
- TIMP-2 (1.00E0 nM): 0.118
- CCL2/MCP-1 (1.00E1 nM): -0.070
- CD54/ICAM-1 (1.00E1 nM): -0.021
- CD106/VCAM-1 (1.00E1 nM): 0.006
- CXCL8/IL-8 (1.00E1 nM): -0.045
- CXCL9/MIG (1.00E1 nM): -0.030
- CXCL10/IP-10 (1.00E1 nM): 0.050
- CXCL11/I-TAC (1.00E1 nM): -0.011
- Collagen I (1.00E1 nM): 0.014
- Collagen III (1.00E1 nM): 0.091
- EGFR (1.00E1 nM): -0.013
- M-CSF (1.00E1 nM): -0.075
- MMP-1 (1.00E1 nM): 0.050
- PAI-I (1.00E1 nM): 0.006
- Proliferation_72hr (1.00E1 nM): -0.171
- SRB (1.00E1 nM): -0.008
- TIMP-1 (1.00E1 nM): -0.010
- TIMP-2 (1.00E1 nM): 0.117
- CCL2/MCP-1 (1.00E2 nM): -0.120
- CD54/ICAM-1 (1.00E2 nM): -0.051
- CD106/VCAM-1 (1.00E2 nM): 0.051
- CXCL8/IL-8 (1.00E2 nM): -0.095
- CXCL9/MIG (1.00E2 nM): -0.077
- CXCL10/IP-10 (1.00E2 nM): 0.043
- CXCL11/I-TAC (1.00E2 nM): -0.010
- Collagen I (1.00E2 nM): 0.00565
- Collagen III (1.00E2 nM): 0.086
- EGFR (1.00E2 nM): -0.067
- M-CSF (1.00E2 nM): -0.100
- MMP-1 (1.00E2 nM): 0.024
- PAI-I (1.00E2 nM): -0.00168
- Proliferation_72hr (1.00E2 nM): -0.240
- SRB (1.00E2 nM): 0.000238
- TIMP-1 (1.00E2 nM): -0.059
- TIMP-2 (1.00E2 nM): 0.121
- CCL2/MCP-1 (1.00E3 nM): -0.156
- CD54/ICAM-1 (1.00E3 nM): -0.066
- CD106/VCAM-1 (1.00E3 nM): 0.036
- CXCL8/IL-8 (1.00E3 nM): -0.119
- CXCL9/MIG (1.00E3 nM): -0.093
- CXCL10/IP-10 (1.00E3 nM): 0.039
- CXCL11/I-TAC (1.00E3 nM): -0.012
- Collagen I (1.00E3 nM): 0.040
- Collagen III (1.00E3 nM): 0.054
